Measurements published in patent US20250353873A1, “COMPOUNDS AND METHODS FOR MODULATING APOE EXPRESSION” (Ionis Pharmaceuticals, Inc., priority 2024, published 2025).
“And” between values parts separate entries of the source, which are not always exact repeats. Identical values can stand only once. Marks after values point to notes of the source that are not given here. Strand notation (5' to 3'): a small letter for the sugar, then the base; units joined by * are phosphorothioate-linked, units joined directly phosphodiester-linked; [ ] holds rarer units or linkages, { } end groups; capitals alone tell only the bases. [ms] = mesyl phosphoramidate linkage; e = 2'-O-(2-methoxyethyl) (MOE); k = constrained ethyl (cEt); [5mC] = 5-methylcytosine; d = 2'-deoxy (DNA)

Key:
human APOE RNA [1] = experiment: Potency (dose response, ED50) in APOE C57BL/6NTac-Apoeem7250 knock-in mice, 8 weeks (Example 15); type: in vivo
Experimental: Modified oligonucleotides described above were tested in the APOE C57BL/6NTac-Apoeem7250 knock-in mouse model described above.
APOE C57BL/6NTac-Apoeem7250 knock-in mice were divided into groups of 3-4 mice each. A group of 4 mice received a single ICV bolus with PBS as a negative control.
Eight weeks post treatment, mice were sacrificed, and RNA was extracted from cortical brain tissue and spinal cord for quantitative real-time RT-PCR analysis of RNA expression of […] using human primer probe set RTS3073 (described herein above). APOE RNA levels were normalized to mouse Ppia. Mouse Ppia was amplified using primer probe set m_cyclo24 (described herein above). Results are presented as percent human APOE RNA relative to the amount of APOE RNA in PBS treated animals, (% control). N.C. indicates values that were not calculated.
The half maximal effective dose (ED50) of each modified oligonucleotide was calculated using GraphPad Prism 10 software (GraphPad Software, San Diego, CA).

human APOE RNA [2] = experiment: Dose-dependent inhibition of human APOE RNA in HepG2 cells, electroporation, 50,000 cells per well, RT-PCR normalized to GAPDH (Example 4, Tables 8-10); type: cell-based; settings: HepG2 cells, electroporation, Table 8
Summary of the method: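 Readout is percent APOE RNA versus untreated controls, measured by RT-PCR (primer probe set RTS3073) and normalized to human GAPDH. Modified oligonucleotides were delivered by electroporation at varying doses into HepG2 cells plated at 50,000 per well.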

human APOE RNA [3] = experiment: Activity in APOE C57BL/6NTac-Apoeem7250 knock-in mice, single ICV bolus, 16 weeks (Example 12); type: in vivo; settings: single ICV bolus 300 μg, 16 weeks post treatment, normalized to mouse Ppia
Summary of the method: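 A single 300 μg intracerebroventricular dose was given, with PBS-treated mice as reference; cortical and spinal cord tissue was taken 16 weeks later. RT-qPCR quantified human APOE RNA, Ppia-normalized, expressed relative to PBS animals (% control).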

human APOE RNA [4] = experiment: Activity in APOE C57BL/6NTac-Apoeem7250 knock-in mice, single ICV bolus, 20 weeks (Example 13); type: in vivo; settings: single ICV bolus 300 μg, 20 weeks post treatment, normalized to mouse Ppia
Summary of the method: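 Cortical and spinal cord RNA was assayed by real-time RT-PCR for human APOE, normalized to mouse Ppia and reported as percent of PBS controls. Tissue was taken twenty weeks after one 300 μg intracerebroventricular bolus in APOE knock-in mice, 4 per group.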

human APOE RNA [5] = experiment: Duration of action study in APOE C57BL/6NTac-Apoeem7250 knock-in mice (Example 16); type: in vivo; settings: 300 μg ICV
Summary of the method: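 Knock-in mice (2-4 per group) received a single ICV bolus of 300 μg oligonucleotide or PBS. At various timepoints, cortex and spinal cord human APOE RNA was measured by RT-qPCR (RTS3073), normalized to mouse Ppia and expressed as % of PBS control.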

human APOE RNA [6] = experiment: Duration of action study in APOE C57BL/6NTac-Apoeem7250 knock-in mice (Example 18); type: in vivo
Experimental: Modified oligonucleotides described above were tested in the APOE C57BL/6NTac-Apoeem7250 knock-in model (described above).
Each mouse received a single intracerebroventricular (ICV) bolus of 300 μg of modified oligonucleotide. A group of 4-6 mice received a single ICV bolus with PBS as a negative control.
Mice were sacrificed at various timepoints as indicated in the table below and RNA was extracted from cortical brain tissue and spinal cord for quantitative real-time RT-PCR analysis of RNA expression of APOE using primer probe set RTS3073 (described herein above). APOE RNA levels were normalized to mouse Ppia. Mouse Ppia was amplified using primer probe set m_cyclo24 (described herein above). Results are presented as percent human APOE RNA relative to the amount of human APOE RNA in PBS treated animals, (% control). Each experiment is identified in separate tables below.

[7] = single ICV bolus, GraphPad Prism 10
[8] = 196 days post-dose, single ICV bolus 300 μg, APOE knock-in mice, normalized to mouse Ppia, relative to PBS
[9] = 224 days post-dose, single ICV bolus 300 μg, APOE knock-in mice, normalized to mouse Ppia, relative to PBS
[10] = 285 days post-dose, single ICV bolus 300 μg, APOE knock-in mice, normalized to mouse Ppia, relative to PBS

Substance: 1785599: modified oligonucleotide complementary to human APOE RNA (k[5mC]*kT*kT*dG[ms]dG[ms]dT[ms]dG[ms]dA[ms]dA[ms]dT[ms]d[5mC]*dT*dT*dT*dA*dT*kT*kA*dA[ms]kA; antisense) [compound 1785599]
- APOE RNA (% control) Cortex (human APOE RNA [1]; ICV dose 10 μg): 94 % control
- APOE RNA (% control) Cortex (human APOE RNA [1]; ICV dose 30 μg): 72 % control
- APOE RNA (% control) Cortex (human APOE RNA [1]; ICV dose 100 μg): 56 % control
- APOE RNA (% control) Cortex (human APOE RNA [1]; ICV dose 300 μg): 37 % control
- APOE RNA (% control) Cortex (human APOE RNA [1]; ICV dose 700 μg): 25 % control
- ED 50 (μg) Cortex (human APOE RNA [1]; [7]): 143.3 µg
- APOE RNA (% control) Spinal Cord (human APOE RNA [1]; spinal cord, ICV dose 10 μg): 54 % control
- APOE RNA (% control) Spinal Cord (human APOE RNA [1]; spinal cord, ICV dose 30 μg): 38 % control
- APOE RNA (% control) Spinal Cord (human APOE RNA [1]; spinal cord, ICV dose 100 μg): 16 % control
- APOE RNA (% control) Spinal Cord (human APOE RNA [1]; spinal cord, ICV dose 300 μg): 13 % control
- APOE RNA (% control) Spinal Cord (human APOE RNA [1]; spinal cord, ICV dose 700 μg): 12 % control
- ED 50 (μg) Spinal Cord (human APOE RNA [1]; spinal cord, single ICV bolus, GraphPad Prism 10): 12.18 µg
- APOE RNA (% UTC) 5 nM (human APOE RNA [2]; 24-hour treatment, 5 nM): 116 % UTC
- APOE RNA (% UTC) 13 nM (human APOE RNA [2]; 24-hour treatment, 13 nM): 116 % UTC
- APOE RNA (% UTC) 33 nM (human APOE RNA [2]; 24-hour treatment, 33 nM): 100 % UTC
- APOE RNA (% UTC) 82 nM (human APOE RNA [2]; 24-hour treatment, 82 nM): 87 % UTC
- APOE RNA (% UTC) 205 nM (human APOE RNA [2]; 24-hour treatment, 205 nM): 65 % UTC
- APOE RNA (% UTC) 512 nM (human APOE RNA [2]; 24-hour treatment, 512 nM): 48 % UTC
- APOE RNA (% UTC) 1,280 nM (human APOE RNA [2]; 24-hour treatment, 1,280 nM): 43 % UTC
- APOE RNA (% UTC) 3,200 nM (human APOE RNA [2]; 24-hour treatment, 3,200 nM): 21 % UTC
- APOE RNA (% UTC) 8,000 nM (human APOE RNA [2]; 24-hour treatment, 8,000 nM): 9 % UTC
- APOE RNA (% UTC) 20,000 nM (human APOE RNA [2]; 24-hour treatment, 20,000 nM): 2 % UTC
- IC50 (human APOE RNA [2]; reduction of human APOE RNA, 24-hour treatment): 640 nM
- APOE RNA (% control) Cortex (human APOE RNA [3]; cortex): 35 % control
- APOE RNA (% control) Spinal Cord (human APOE RNA [3]; spinal cord): 54 % control
- APOE RNA (% control) Cortex (human APOE RNA [4]; cortex): 55 % control
- APOE RNA (% control) Spinal Cord (human APOE RNA [4]; spinal cord): 20 % control

Substance: Aks^mCeoTeoTesGesGksTdsGdzAdzAdzTds^mCdsTdsTdsTdsAdzTksTksAesAe (kA*e[5mC]eTeT*eG*kG*dT*dG[ms]dA[ms]dA[ms]dT*d[5mC]*dT*dT*dT*dA[ms]kT*kT*eA*eA) [Compound No. 1809635]
- APOE RNA (% control) Cortex (human APOE RNA [1]; ICV dose 10 μg): 95 % control
- APOE RNA (% control) Cortex (human APOE RNA [1]; ICV dose 30 μg): 84 % control
- APOE RNA (% control) Cortex (human APOE RNA [1]; ICV dose 100 μg): 62 % control
- APOE RNA (% control) Cortex (human APOE RNA [1]; ICV dose 300 μg): 30 % control
- APOE RNA (% control) Cortex (human APOE RNA [1]; ICV dose 700 μg): 16 % control
- ED 50 (μg) Cortex (human APOE RNA [1]; [7]): 146.7 µg
- APOE RNA (% control) Spinal Cord (human APOE RNA [1]; spinal cord, ICV dose 10 μg): 51 % control
- APOE RNA (% control) Spinal Cord (human APOE RNA [1]; spinal cord, ICV dose 30 μg): 27 % control
- APOE RNA (% control) Spinal Cord (human APOE RNA [1]; spinal cord, ICV dose 100 μg): 13 % control
- APOE RNA (% control) Spinal Cord (human APOE RNA [1]; spinal cord, ICV dose 300 μg): 13 % control
- APOE RNA (% control) Spinal Cord (human APOE RNA [1]; spinal cord, ICV dose 700 μg): 18 % control
- APOE RNA (% control) Cortex (human APOE RNA [5]; 7 days post-dose): 40 % control
- APOE RNA (% control) Cortex (human APOE RNA [5]; 14 days post-dose): 30 % control
- APOE RNA (% control) Spinal Cord (human APOE RNA [5]; 7 days post-dose): 44 % control
- APOE RNA (% control) Spinal Cord (human APOE RNA [5]; 14 days post-dose): 27 % control
- APOE RNA (% control) Cortex (human APOE RNA [6]; 300 μg ICV, 28 days post-dose): 29 % control and 25 % control
- APOE RNA (% control) Cortex (human APOE RNA [6]; 300 μg ICV, 56 days post-dose): 19 % control
- APOE RNA (% control) Cortex (human APOE RNA [6]; 300 μg ICV, 112 days post-dose): 24 % control and 35 % control
- APOE RNA (% control) Cortex (human APOE RNA [6]; 300 μg ICV, 140 days post-dose): 52‡ % control
- APOE RNA (% control) Cortex (human APOE RNA [6]; 300 μg ICV, 168 days post-dose): 35 % control
- APOE RNA (% control) Cortex (human APOE RNA [6]; 300 μg ICV, 342 days post-dose): 68 % control
- APOE RNA (% control) Cortex (human APOE RNA [6]; [8]): 50 % control
- APOE RNA (% control) Cortex (human APOE RNA [6]; [9]): 55 % control
- APOE RNA (% control) Cortex (human APOE RNA [6]; [10]): 67 % control
- APOE RNA (% control) Spinal Cord (human APOE RNA [6]; 300 μg ICV, 28 days post-dose): 11 % control and 18 % control
- APOE RNA (% control) Spinal Cord (human APOE RNA [6]; 300 μg ICV, 56 days post-dose): 11 % control
- APOE RNA (% control) Spinal Cord (human APOE RNA [6]; 300 μg ICV, 112 days post-dose): 13 % control and 14 % control
- APOE RNA (% control) Spinal Cord (human APOE RNA [6]; 300 μg ICV, 140 days post-dose): 27‡ % control
- APOE RNA (% control) Spinal Cord (human APOE RNA [6]; 300 μg ICV, 168 days post-dose): 26 % control
- APOE RNA (% control) Spinal Cord (human APOE RNA [6]; 300 μg ICV, 342 days post-dose): 36 % control
- APOE RNA (% control) Spinal Cord (human APOE RNA [6]; [8]): 33 % control
- APOE RNA (% control) Spinal Cord (human APOE RNA [6]; [9]): 26 % control
- APOE RNA (% control) Spinal Cord (human APOE RNA [6]; [10]): 41 % control
